Activity calls are given as the source filed them.
Key:
[1] = system: BJ; assay: cells; assay type: functional, cell-based; details: Homo sapiens
[2] = Luminescence-based dose response cell-based high throughput screening assay for cytotoxic compounds using the IEC-6 intestinal epithelial cell line. [Related pubchem assays: 1858 (Summary AID.), 1825 (Counterscreen.), 1907 (Confirmation screen.)]; assay type: functional
[3] = system: BJ; assay: cytotoxicity toward BJ-TERT-LT-ST fibroblasts, dose response, cell-based, RAS-independent, luminescence (AID 1935); assay type: functional; details: Homo sapiens;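 further: BJ fibroblasts immortalized with TERT plus LT and ST oncogenes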
[4] = cytotoxicity in HEK-293T cells, dose response, cytotoxicity control for TCR NF-kB inhibitor project, luminescence, T-cell screen hits (AID 489026); assay type: functional, cell-based;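 further: cells exposed to compound about 14 hours before the viability readout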
[5] = system: BJ; assay: cytotoxicity toward BJ-TERT fibroblasts, dose response, cell-based, RAS-independent, luminescence (AID 1933); assay type: functional; details: Homo sapiens
[6] = cytotoxicity toward DRD oncogenic fibroblasts, dose response, cell-based, non-viral oncogenic, luminescence (AID 1934); assay type: functional; details: Homo sapiens
[7] = target: T1, Genome polyprotein (Hepatitis C virus, UniProt Q2Q167); assay: Late stage assay provider counterscreen results for the probe development effort to identify inhibitors of Hepatitis C Virus (HCV) core protein dimerization: Luminescence-based biochemical AlphaScreen assay to identify inhibitors of HCV core dimerization.; assay type: functional, Hepacivirus hominis
[8] = target: Bcl-2-like protein 1 (Homo sapiens, UniProt Q07817); assay: BCL-XL inhibitors, dose response, selectivity assay for MCL1 inhibitor project, biochemical, fluorescence polarization, 1536-well (AID 2218)
[9] = target: T2, Small ubiquitin-related modifier 1 (Homo sapiens, UniProt P63165); assay: inhibitors of SUMO1 peptide binding, dose response, biochemical, fluorescence polarization, uHTS hits (AID 624382); assay type: functional; details: read-out: IC50_Mean
[10] = target: Induced myeloid leukemia cell differentiation protein Mcl-1 (Homo sapiens, UniProt Q07820); assay: MCL1-BIM BH3 interaction inhibitors, dose response, biochemical, fluorescence polarization, BIM-BH3 peptide, 1536-well (AID 2217)
[11] = target: T1, Genome polyprotein; assay: HCV core protein dimerization inhibitors, dose response, biochemical, TR-FRET (AID 2159); set-up: species or system Hepacivirus hominis;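 further: blocks dimerization of HCV core protein measured by TR-FRET between tagged core106 pairs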
[12] = target: Albumin (Bos taurus, UniProt P02769); assay: Counterscreen for inhibitors of T-cell receptor (TCR)-CD3 interaction: Fluorescence-based biochemical high throughput dose response assay to identify inhibitors of T-cell receptor (TCR)-CD3 interaction using a TAMRA-labeled BSA probe.; assay type: functional
[13] = target: T2, Small ubiquitin-related modifier 1; assay: inhibitors of SUMO1 partner interactions, dose response, biochemical, FRET (AID 624383); assay type: functional; details: read-out: IC50_Mean
[14] = cytotoxicity in KRAS-transformed pancreatic duct cells, primary screen, cell-based, fluorescence, HTS (AID 431); assay type: functional; details: Homo sapiens;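 further: cell line used: HPDE-C7K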
[15] = cytotoxicity in HPDE-C7 cells, cell-based, fluorescence, HTS (AID 430); assay type: functional; details: Homo sapiens
[16] = target: T3, RNA-binding protein pos-1 (Caenorhabditis elegans, UniProt G5EF15); assay: inhibitors of POS-1/mex-3 RNA binding, dose response, biochemical, fluorescence polarization (AID 1964);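 further: purified POS-1 fused to maltose binding protein made in E. coli; potency of compounds blocking POS-1 binding to fluorescent RNA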
T3 sequence (G5EF15 whole entry): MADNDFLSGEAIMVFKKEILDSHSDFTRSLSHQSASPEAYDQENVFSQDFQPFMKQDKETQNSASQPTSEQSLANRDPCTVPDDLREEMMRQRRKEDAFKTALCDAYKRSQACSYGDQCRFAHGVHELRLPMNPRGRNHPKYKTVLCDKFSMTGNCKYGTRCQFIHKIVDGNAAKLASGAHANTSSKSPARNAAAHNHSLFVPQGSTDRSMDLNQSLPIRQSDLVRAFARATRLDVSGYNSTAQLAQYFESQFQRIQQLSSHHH

[17] = target: T4, Heat shock factor protein 1 (Mus musculus, UniProt P38532); assay: HSF1 potentiators in luciferase reporter cells, confirmation, cell-based, NIH3T3, luminescence, dose retest (AID 435004); assay type: functional;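 further: stress induced by proteasome inhibitor MG132 added 30 min after compound; luciferase reporter driven by HSF1 response element in NIH3T3 cells; actives raise luminescence as potentiators of the MG132 stress response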
T4 sequence (P38532 whole entry): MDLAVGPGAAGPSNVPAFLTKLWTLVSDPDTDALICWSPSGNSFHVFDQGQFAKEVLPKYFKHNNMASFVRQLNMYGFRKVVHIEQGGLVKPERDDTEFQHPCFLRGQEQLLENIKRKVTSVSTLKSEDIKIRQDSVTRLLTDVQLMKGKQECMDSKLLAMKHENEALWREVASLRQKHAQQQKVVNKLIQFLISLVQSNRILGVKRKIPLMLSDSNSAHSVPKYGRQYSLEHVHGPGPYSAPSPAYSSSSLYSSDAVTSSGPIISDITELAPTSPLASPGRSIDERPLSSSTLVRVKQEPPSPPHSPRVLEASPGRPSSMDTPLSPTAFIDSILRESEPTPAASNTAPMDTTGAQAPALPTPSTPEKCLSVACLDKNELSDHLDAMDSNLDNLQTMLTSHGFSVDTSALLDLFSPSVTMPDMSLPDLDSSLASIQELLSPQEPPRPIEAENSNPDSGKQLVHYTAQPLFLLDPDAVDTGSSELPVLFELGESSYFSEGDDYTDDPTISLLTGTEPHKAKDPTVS

[18] = target: T5, Estrogen receptor (Homo sapiens, UniProt P03372);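 further: potency for inhibiting coactivator peptide recruitment to the receptor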
T5 sequence (P03372 whole entry): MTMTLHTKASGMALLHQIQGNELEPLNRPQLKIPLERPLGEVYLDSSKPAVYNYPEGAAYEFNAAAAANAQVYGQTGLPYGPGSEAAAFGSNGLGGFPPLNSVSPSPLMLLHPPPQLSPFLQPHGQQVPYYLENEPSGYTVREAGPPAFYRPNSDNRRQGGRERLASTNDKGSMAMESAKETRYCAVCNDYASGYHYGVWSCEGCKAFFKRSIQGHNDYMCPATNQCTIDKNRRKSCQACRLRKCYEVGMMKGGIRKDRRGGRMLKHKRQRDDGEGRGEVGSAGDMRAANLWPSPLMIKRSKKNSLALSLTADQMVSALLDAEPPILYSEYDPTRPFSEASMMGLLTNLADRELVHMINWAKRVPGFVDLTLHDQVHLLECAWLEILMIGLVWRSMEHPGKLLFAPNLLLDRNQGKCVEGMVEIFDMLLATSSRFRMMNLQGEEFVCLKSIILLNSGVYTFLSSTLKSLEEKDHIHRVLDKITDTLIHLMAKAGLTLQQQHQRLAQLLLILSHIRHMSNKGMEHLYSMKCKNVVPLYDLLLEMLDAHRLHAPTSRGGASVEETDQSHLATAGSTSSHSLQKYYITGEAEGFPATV

[19] = target: T6, Zinc finger protein mex-5 (Caenorhabditis elegans, UniProt Q9XUB2); assay: MEX-5/TCR-2 RNA interaction inhibitors, dose response, biochemical, C. elegans, fluorescence polarization (AID 1960)
T6 sequence (Q9XUB2 whole entry): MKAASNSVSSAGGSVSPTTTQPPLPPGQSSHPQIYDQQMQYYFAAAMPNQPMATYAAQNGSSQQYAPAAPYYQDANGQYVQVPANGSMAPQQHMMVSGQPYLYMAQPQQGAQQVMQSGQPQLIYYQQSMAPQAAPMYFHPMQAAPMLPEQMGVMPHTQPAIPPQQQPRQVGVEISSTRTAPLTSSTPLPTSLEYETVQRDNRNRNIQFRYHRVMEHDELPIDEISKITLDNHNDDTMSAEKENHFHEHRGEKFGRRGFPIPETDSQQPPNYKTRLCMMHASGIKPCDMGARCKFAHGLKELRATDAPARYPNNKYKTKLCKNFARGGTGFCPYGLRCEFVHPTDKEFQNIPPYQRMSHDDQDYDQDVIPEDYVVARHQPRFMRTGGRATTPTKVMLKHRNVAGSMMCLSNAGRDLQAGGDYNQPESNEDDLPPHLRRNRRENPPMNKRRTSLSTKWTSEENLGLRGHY

[20] = target: Glucose-6-phosphate 1-dehydrogenase (Homo sapiens, UniProt P11413); assay: human G6PD enzyme inhibitors, dose response, selectivity assay for P. falciparum G6PD inhibitor project, biochemical, fluorescence (AID 504792); assay type: functional
[21] = target: Large T antigen (Simian virus 40, UniProt P03070); assay type: functional, Betapolyomavirus macacae;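 further: Confirmatory-stage PubChem screen for compounds that inhibit SV40 T antigen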
[22] = target: 14-3-3 protein gamma (Homo sapiens, UniProt P61981); assay: modulators of 14-3-3 gamma client binding – dose response (AID 711); assay type: functional
[23] = target: Aspartyl aminopeptidase (Plasmodium falciparum 3D7, UniProt Q8I2J3); assay: Counterscreen for inhibitors of M1 and M17 aminopeptidases: QFRET-based biochemical high throughput dose response assay for inhibitors of the Plasmodium falciparum M18 Aspartyl Aminopeptidase (PFM18AAP). [Related PubChem assays: 1619 (Screening assay (M17LAP inhibitors).), 1445 (Screening assay (M1AAP inhibitors).)]
[24] = target: T7, Leucine aminopeptidase (Plasmodium falciparum 3D7, UniProt Q8IL11); assay: P. falciparum M17LAP inhibitors, primary screen, biochemical, fluorogenic H-Leu-NHMec substrate, 1536-well (AID 1619); assay type: functional
T7 sequence (Q8IL11 whole entry): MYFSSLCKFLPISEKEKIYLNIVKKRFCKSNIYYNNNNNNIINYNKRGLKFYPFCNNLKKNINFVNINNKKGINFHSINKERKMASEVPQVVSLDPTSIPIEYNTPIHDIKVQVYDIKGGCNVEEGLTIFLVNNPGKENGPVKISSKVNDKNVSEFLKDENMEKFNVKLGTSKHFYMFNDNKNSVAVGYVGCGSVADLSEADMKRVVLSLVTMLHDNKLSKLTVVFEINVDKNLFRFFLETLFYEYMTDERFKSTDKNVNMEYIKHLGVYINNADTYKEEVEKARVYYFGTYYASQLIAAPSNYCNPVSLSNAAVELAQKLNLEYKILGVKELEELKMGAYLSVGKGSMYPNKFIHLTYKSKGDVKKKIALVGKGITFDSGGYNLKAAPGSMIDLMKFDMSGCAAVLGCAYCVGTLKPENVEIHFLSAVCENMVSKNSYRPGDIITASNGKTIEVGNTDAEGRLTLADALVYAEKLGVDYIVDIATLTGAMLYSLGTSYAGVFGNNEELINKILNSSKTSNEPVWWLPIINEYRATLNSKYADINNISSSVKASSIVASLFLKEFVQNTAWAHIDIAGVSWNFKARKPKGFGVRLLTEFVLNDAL

[25] = target: Procathepsin L (Homo sapiens, UniProt P07711); assay: cathepsin L inhibitors, dose response, counter-screen for M1/M17 aminopeptidase inhibitor project, biochemical, QFRET, 1536-well (AID 2214)
[26] = target: Transitional endoplasmic reticulum ATPase (Homo sapiens, UniProt P55072); assay: Luminescence dose response biochemical high throughput screening assay for inhibitors of the p97 ATPase: synthesized compounds. [Related pubchem assays: 1481, 1517 ]
[27] = target: Transitional endoplasmic reticulum ATPase (Homo sapiens, UniProt P55072, C522A); assay: Luminescence counterscreen assay for p97 inhibitors: dose response biochemical high throughput screening assay to identify inhibitors of the C522A mutant p97 ATPase: synthesized compounds. [Related pubchem assays: 1481, 1517, 1551 ]
[28] = target: Cytochrome P450 2C9 (Homo sapiens, UniProt P11712)
[29] = M. tuberculosis H37Rv growth inhibitors, H37Rv strain (AID 1626); assay type: functional
[30] = target: G-protein coupled receptor 55 (Homo sapiens, UniProt Q9Y2T6); assay: GPR55 agonists via beta-arrestin recruitment, primary screen, imaging, U2OS cells, beta-arrestin-GFP redistribution (AID 1961); assay type: functional
[31] = cytotoxicity toward NIH3T3 fibroblasts, dose response, counter-screen, cell-based, ATP luminescence, mouse fibroblasts (AID 2010); assay type: functional;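 further: cells exposed to compound for about 90 hours before reading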
[32] = system: Vero; assay: host cell cytotoxicity of antiviral hits, dose response, cytotoxicity control for West Nile virus antiviral project, secondary assay (AID 1650); assay type: functional; details: Chlorocebus sabaeus
[33] = inhibitors of intracellular T. cruzi replication, confirmation, NIH3T3 host cells, beta-gal luminescence (AID 2044); assay type: functional, cell-based;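 further: intracellular parasites grown in NIH/3T3 mouse fibroblasts as host cells; luminescent beta-galactosidase reporter signal from transgenic T. cruzi replicating inside host cells; inhibitors lower the luminescence signal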
[34] = target: Heat shock protein HSP 90-alpha (Homo sapiens, UniProt P07900); assay type: functional, organism-based

Chain of Large T antigen (P03070 whole entry): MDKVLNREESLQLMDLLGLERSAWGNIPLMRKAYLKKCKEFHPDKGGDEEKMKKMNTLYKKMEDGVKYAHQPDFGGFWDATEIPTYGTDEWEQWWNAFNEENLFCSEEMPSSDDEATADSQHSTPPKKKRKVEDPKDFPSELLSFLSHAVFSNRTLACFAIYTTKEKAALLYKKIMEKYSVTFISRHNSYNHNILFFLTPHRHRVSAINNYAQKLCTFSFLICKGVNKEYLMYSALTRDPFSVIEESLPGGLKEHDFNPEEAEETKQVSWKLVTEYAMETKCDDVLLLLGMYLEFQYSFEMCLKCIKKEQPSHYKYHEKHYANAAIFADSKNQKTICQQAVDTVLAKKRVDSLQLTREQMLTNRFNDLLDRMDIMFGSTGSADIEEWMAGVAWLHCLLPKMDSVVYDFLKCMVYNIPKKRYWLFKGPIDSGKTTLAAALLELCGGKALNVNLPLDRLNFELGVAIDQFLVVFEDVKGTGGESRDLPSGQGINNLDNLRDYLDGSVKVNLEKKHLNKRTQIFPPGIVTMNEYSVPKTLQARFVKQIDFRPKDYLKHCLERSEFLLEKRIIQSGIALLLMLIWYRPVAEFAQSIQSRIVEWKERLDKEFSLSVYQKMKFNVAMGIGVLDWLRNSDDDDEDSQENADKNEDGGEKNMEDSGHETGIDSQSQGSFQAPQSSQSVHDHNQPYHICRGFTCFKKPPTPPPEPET
T1 sequence (Q2Q167 whole entry): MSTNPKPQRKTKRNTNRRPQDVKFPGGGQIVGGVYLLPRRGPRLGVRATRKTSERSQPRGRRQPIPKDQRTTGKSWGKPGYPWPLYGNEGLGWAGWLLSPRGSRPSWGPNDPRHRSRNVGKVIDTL
T2 sequence (P63165 whole entry): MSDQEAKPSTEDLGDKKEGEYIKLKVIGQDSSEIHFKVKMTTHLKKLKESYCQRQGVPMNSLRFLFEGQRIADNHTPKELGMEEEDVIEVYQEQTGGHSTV
Chain of Transitional endoplasmic reticulum ATPase (Homo sapiens, UniProt P55072) (P55072 whole entry): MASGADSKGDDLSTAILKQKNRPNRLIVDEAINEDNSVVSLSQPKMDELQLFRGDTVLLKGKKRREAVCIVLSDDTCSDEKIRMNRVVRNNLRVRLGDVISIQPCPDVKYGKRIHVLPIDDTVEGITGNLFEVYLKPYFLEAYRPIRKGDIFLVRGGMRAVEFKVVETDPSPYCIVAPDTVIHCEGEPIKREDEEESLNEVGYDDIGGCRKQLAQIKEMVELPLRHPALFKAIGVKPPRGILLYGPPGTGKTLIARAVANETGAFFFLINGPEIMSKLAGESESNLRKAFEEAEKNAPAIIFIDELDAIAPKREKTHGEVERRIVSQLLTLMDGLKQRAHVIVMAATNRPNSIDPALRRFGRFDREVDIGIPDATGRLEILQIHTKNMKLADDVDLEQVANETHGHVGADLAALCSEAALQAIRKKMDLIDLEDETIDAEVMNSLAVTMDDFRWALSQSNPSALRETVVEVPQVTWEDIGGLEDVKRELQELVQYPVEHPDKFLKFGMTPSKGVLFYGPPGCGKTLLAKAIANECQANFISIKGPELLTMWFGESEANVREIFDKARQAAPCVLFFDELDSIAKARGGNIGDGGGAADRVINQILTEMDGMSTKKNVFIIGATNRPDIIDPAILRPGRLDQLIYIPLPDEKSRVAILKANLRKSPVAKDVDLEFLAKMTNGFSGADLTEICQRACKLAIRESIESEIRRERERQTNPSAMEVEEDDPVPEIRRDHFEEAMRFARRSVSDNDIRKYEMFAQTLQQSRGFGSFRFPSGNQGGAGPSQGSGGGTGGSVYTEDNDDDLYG
Chain of Transitional endoplasmic reticulum ATPase (Homo sapiens, UniProt P55072, C522A) (P55072 2-806 C522A limits assumed): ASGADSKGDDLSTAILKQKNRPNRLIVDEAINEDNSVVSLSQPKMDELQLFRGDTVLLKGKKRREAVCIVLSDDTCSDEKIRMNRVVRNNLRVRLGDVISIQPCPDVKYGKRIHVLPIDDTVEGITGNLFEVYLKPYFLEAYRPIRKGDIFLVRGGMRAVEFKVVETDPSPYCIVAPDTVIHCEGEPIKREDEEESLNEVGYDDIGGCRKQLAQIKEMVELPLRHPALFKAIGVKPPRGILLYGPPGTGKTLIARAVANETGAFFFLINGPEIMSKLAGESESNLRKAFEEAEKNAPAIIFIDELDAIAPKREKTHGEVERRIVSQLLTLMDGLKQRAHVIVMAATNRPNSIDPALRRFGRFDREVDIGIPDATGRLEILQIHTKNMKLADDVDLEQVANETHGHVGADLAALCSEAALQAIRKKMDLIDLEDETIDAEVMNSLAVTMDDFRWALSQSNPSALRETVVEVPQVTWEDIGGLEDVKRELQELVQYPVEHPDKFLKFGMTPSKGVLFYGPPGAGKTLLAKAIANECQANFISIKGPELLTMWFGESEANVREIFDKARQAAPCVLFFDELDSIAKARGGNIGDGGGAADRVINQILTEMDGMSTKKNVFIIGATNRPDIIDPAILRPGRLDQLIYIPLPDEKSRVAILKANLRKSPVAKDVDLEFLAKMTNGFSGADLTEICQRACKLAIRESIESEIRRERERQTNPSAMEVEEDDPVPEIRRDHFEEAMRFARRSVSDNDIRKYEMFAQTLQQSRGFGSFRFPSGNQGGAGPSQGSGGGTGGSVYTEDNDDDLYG
Chain of Albumin (P02769 whole entry): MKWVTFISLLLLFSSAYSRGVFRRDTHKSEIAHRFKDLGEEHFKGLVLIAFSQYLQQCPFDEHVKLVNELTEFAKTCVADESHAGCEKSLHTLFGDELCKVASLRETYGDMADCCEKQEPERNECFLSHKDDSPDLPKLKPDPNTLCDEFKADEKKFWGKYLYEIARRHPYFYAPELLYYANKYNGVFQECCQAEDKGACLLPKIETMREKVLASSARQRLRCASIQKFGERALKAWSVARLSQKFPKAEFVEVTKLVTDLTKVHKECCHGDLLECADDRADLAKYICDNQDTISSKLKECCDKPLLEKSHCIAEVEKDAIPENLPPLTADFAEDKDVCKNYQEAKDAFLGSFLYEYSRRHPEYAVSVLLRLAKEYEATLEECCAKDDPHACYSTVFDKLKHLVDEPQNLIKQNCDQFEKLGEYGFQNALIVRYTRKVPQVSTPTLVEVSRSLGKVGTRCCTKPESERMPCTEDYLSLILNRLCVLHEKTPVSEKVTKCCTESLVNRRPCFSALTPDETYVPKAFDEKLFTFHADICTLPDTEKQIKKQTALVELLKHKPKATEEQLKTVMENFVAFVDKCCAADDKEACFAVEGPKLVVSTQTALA
Chain of Induced myeloid leukemia cell differentiation protein Mcl-1 (Q07820 whole entry): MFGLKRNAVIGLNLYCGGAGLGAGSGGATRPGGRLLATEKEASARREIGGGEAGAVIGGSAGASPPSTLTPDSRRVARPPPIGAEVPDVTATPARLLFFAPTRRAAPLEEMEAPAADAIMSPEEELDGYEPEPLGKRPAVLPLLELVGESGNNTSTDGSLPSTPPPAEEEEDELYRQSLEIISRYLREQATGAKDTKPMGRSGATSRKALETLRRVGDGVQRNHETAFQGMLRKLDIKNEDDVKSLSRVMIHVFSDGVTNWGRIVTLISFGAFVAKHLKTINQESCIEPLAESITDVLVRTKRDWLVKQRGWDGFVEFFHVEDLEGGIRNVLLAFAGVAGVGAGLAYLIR
Chain of Bcl-2-like protein 1 (Q07817 whole entry): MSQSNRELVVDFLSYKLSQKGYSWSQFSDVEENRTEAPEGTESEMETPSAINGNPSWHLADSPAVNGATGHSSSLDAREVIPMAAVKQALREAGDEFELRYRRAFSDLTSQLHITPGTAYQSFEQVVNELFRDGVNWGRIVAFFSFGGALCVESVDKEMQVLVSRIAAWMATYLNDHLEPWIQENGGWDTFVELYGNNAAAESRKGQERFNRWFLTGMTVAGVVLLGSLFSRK
Chain of Procathepsin L (P07711 whole entry): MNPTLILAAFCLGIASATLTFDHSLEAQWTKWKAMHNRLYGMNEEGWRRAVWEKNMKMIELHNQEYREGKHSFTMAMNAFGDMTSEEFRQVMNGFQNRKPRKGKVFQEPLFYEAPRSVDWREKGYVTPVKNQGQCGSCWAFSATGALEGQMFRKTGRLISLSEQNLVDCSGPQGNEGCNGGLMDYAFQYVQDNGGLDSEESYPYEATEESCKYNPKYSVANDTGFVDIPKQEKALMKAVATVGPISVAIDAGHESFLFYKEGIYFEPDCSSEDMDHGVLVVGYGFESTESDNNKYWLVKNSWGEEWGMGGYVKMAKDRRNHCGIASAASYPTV
Chain of Aspartyl aminopeptidase (Q8I2J3 whole entry): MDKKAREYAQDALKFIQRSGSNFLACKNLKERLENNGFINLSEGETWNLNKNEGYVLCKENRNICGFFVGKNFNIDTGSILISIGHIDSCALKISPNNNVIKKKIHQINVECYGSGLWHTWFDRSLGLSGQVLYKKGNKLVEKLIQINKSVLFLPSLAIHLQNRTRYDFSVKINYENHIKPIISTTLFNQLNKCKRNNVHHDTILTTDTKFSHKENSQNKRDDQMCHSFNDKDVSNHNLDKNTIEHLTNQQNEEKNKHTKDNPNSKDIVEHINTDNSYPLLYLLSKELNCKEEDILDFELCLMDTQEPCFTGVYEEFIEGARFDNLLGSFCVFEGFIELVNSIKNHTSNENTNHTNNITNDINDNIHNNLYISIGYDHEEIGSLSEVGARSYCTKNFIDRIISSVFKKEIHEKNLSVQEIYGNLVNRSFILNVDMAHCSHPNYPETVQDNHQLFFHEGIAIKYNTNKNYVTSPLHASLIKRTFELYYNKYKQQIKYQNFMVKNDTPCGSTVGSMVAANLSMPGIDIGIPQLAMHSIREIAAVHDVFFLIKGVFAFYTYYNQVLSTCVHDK
Chain of G-protein coupled receptor 55 (Q9Y2T6 whole entry): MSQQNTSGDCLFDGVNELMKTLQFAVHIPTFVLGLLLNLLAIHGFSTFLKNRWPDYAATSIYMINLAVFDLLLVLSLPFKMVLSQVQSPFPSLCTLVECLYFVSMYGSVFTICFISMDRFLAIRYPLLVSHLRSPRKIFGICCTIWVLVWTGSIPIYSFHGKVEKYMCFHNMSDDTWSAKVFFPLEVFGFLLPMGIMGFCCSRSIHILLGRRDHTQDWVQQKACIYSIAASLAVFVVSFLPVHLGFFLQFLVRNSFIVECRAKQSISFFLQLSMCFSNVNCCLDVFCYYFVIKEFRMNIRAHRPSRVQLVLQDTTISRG

## COc1cc2c(c(OC)c1OC)-c1ccc(OC)c(=O)cc1[C@@H](N(C)CC#CCO)CC2
[1]
  EC50: 16.7 µM (inconclusive)
[2]
  IC50: 0.226 µM (active)
[3]
  EC50: 0.616 µM (inconclusive)
[4]
  IC50: > 80 µM (inactive)
[5]
  EC50: 9.89 µM (active)
[6]
  EC50: 1.45 µM (inconclusive)

## CCN(CC(=O)Nc1c(F)cccc1F)C(=O)/C=C/c1ccc2ccccc2n1
[7]
  IC50: 29.8 µM (inactive)
[8]
  IC50: 25.3 µM (not active)
[9]
  IC50: > 66.6 µM (inactive)
[10]
  IC50: 3.46 µM (active)
[11]
  IC50: 16.7 µM (not active)
[12]
  IC50: > 94.1 µM (inactive)
[13]
  IC50: 2.3 µM (active)

## CC(Cc1ccc(O)c(O)c1)C(C)Cc1ccc(O)c(O)c1 (stereo not given) [NORDIHYDROGUAIARETIC ACID]
[14]
  EC50: 11.2 µM (active)
[15]
  EC50: 9.48 µM (active)
[16]
  EC50: 26.1 µM (active)
[17]
  EC50: 2.32 µM (active)
[18]
  IC50: 22.2 µM (active)
[19]
  EC50: 8.75 µM (active)
[20]
  IC50: > 80 µM (inactive)
[21]
  IC50: 21.9 µM (active)
[22]
  IC50: > 50 µM (not active)

## CCN(CC)c1ccc(NC(=O)CSc2nnc(N)s2)cc1C
[23]
  IC50: > 73.5 µM (not active)
[24]
  IC50: 5.57 µM (active)
[25]
  IC50: > 59.6 µM (not active)
[21]
  IC50: 14.8 µM (active)

## Cc1cc(-c2csc(Nc3ccc(C#N)cc3)n2)c(C)n1C
[26]
  IC50: > 50 µM (not active)
[27]
  IC50: > 50 µM (not active)

## CCCCOC(=O)Nc1ccc(C)c(Cl)c1
[28]
  AC50: 11.2 µM (inconclusive)
[29]
  IC50: > 100 µM (active)

## CC(=O)Nc1ccc(Nc2cc(C(C)C)nc3c(-c4ccccc4)c(C)nn23)cc1
[30]
  EC50: > 32 µM (inactive)
[31]
  EC50: 10.4 µM (active)
[32]
  CC50: > 100 µM (active)
[33]
  EC50: 0.211 µM (active)
[34]
  AC50: 3.84 µM (active)
